Measurements published in PubChem BioAssay (NCI).
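GI50: concentration for 50% inhibition of growth. TGI marks complete inhibition of growth.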

Columns and labels:
Assay in all cases: NCI anticancer screen, dose series, 384-well format
NCI-H522 lung = test system: NCI-H522 lung
U251 glioblastoma = test system: U251 glioblastoma
MCF7 breast = test system: MCF7 breast
BT-549 breast = test system: BT-549 breast
OVCAR-3 ovarian = test system: OVCAR-3 ovarian
M14 melanoma = test system: M14 melanoma
IGROV1 ovarian = test system: IGROV1 ovarian
HCT-116 colon = test system: HCT-116 colon
SF-295 CNS = test system: SF-295 CNS
SN12C renal = test system: SN12C renal
MALME-3M melanoma = test system: MALME-3M melanoma
MOLT-4 leukemia = test system: MOLT-4 leukemia
RXF 393 renal = test system: RXF 393 renal
SNB-75 CNS = test system: SNB-75 CNS
HCT-15 colon = test system: HCT-15 colon
MDA-MB-435 melanoma = test system: MDA-MB-435 melanoma
NCI-H322M lung = test system: NCI-H322M lung
DU-145 prostate = test system: DU-145 prostate
HOP-62 NSCLC = test system: HOP-62 NSCLC
EKVX NSCLC = test system: EKVX NSCLC
NCI-H226 lung = test system: NCI-H226 lung
MDA-MB-231 breast = test system: MDA-MB-231 breast
A498 renal = test system: A498 renal
HT29 colon = test system: HT29 colon
T-47D breast = test system: T-47D breast
SF-268 CNS = test system: SF-268 CNS
HL-60(TB) leukemia = test system: HL-60(TB) leukemia
OVCAR-5 ovarian = test system: OVCAR-5 ovarian
A549 NSCLC = test system: A549 NSCLC
NCI-H23 lung = test system: NCI-H23 lung
SK-MEL-2 melanoma = test system: SK-MEL-2 melanoma
HS 578T breast = test system: HS 578T breast
NCI-H460 NSCLC = test system: NCI-H460 NSCLC
SK-MEL-5 melanoma = test system: SK-MEL-5 melanoma
OVCAR-8 ovarian = test system: OVCAR-8 ovarian
HOP-92 NSCLC = test system: HOP-92 NSCLC
SK-OV-3 ovarian = test system: SK-OV-3 ovarian
K-562 leukemia = test system: K-562 leukemia
SW-620 colon = test system: SW-620 colon
SR leukemia = test system: SR leukemia
CAKI-1 renal = test system: CAKI-1 renal
ACHN renal = test system: ACHN renal
PC-3 prostate = test system: PC-3 prostate
MDA-MB-468 breast = test system: MDA-MB-468 breast
TK-10 renal = test system: TK-10 renal
SNB-19 CNS = test system: SNB-19 CNS
OVCAR-4 ovarian = test system: OVCAR-4 ovarian
786-0 renal = test system: 786-0 renal
SF-539 CNS = test system: SF-539 CNS
SK-MEL-28 melanoma = test system: SK-MEL-28 melanoma
KM12 colon = test system: KM12 colon
COLO 205 colon = test system: COLO 205 colon
UACC-257 melanoma = test system: UACC-257 melanoma
UACC-62 melanoma = test system: UACC-62 melanoma
UO-31 renal = test system: UO-31 renal

Q: `Cc1cc(Oc2ccc3nc(COc4ccc(CC5SC(=O)NC5=O)cc4)n(C)c3c2)cc(C)c1N` (stereo not given) was tested. Which GI50 (NCI-H522 lung) did it give?
A: Its GI50 is 20.4 µM.

Q: What about the TGI (NCI-H522 lung) of the same compound?
A: The TGI was 41.4 µM.

Q: And the GI50 (U251 glioblastoma)?
A: The GI50 was 21 µM.

Q: And the TGI (U251 glioblastoma)?
A: The TGI was 45.1 µM.

Q: What about the GI50 (MCF7 breast) of the same compound?
A: Its GI50 is 5.45 µM.

Q: And the TGI (MCF7 breast)?
A: The TGI was 22 µM.

Q: And the GI50 (BT-549 breast)?
A: Its GI50 is 16.4 µM.

Q: What about the TGI (BT-549 breast) of the same compound?
A: Its TGI is 31.2 µM.

Q: And the GI50 (OVCAR-3 ovarian)?
A: Its GI50 is 19.1 µM.

Q: And the TGI (OVCAR-3 ovarian)?
A: The TGI was 35.8 µM.

Q: And the GI50 (M14 melanoma)?
A: The GI50 was 19.9 µM.

Q: And the TGI (M14 melanoma)?
A: The TGI was 39.9 µM.

Q: And the GI50 (IGROV1 ovarian)?
A: The GI50 was 29.6 µM.

Q: And the TGI (IGROV1 ovarian)?
A: Its TGI is 79.5 µM.

Q: What about the GI50 (HCT-116 colon) of the same compound?
A: Its GI50 is 15.4 µM.

Q: What about the TGI (HCT-116 colon) of the same compound?
A: The TGI was 30.6 µM.

Q: And the GI50 (SF-295 CNS)?
A: Its GI50 is 26.3 µM.

Q: And the TGI (SF-295 CNS)?
A: Its TGI is 66.4 µM.

Q: And the GI50 (SN12C renal)?
A: Its GI50 is 28.7 µM.

Q: What about the TGI (SN12C renal) of the same compound?
A: Its TGI is over 100 µM.

Q: And the GI50 (MALME-3M melanoma)?
A: Its GI50 is 20.7 µM.

Q: What about the TGI (MALME-3M melanoma) of the same compound?
A: The TGI was 39.3 µM.

Q: What about the GI50 (MOLT-4 leukemia) of the same compound?
A: Its GI50 is 14 µM.

Q: And the TGI (MOLT-4 leukemia)?
A: The TGI was 27.1 µM.

Q: What about the GI50 (RXF 393 renal) of the same compound?
A: Its GI50 is 16.8 µM.

Q: What about the TGI (RXF 393 renal) of the same compound?
A: The TGI was 48.4 µM.

Q: What about the GI50 (SNB-75 CNS) of the same compound?
A: Its GI50 is 22 µM.

Q: And the TGI (SNB-75 CNS)?
A: The TGI was 50 µM.

Q: What about the GI50 (HCT-15 colon) of the same compound?
A: Its GI50 is 21.7 µM.

Q: What about the TGI (HCT-15 colon) of the same compound?
A: Its TGI is 43 µM.

Q: And the GI50 (MDA-MB-435 melanoma)?
A: Its GI50 is 20 µM.

Q: And the TGI (MDA-MB-435 melanoma)?
A: Its TGI is 43.9 µM.

Q: What about the GI50 (NCI-H322M lung) of the same compound?
A: Its GI50 is 32.8 µM.

Q: What about the TGI (NCI-H322M lung) of the same compound?
A: The TGI was 77.4 µM.

Q: What about the GI50 (DU-145 prostate) of the same compound?
A: The GI50 was 19 µM.

Q: And the TGI (DU-145 prostate)?
A: The TGI was 36 µM.

Q: What about the GI50 (HOP-62 NSCLC) of the same compound?
A: Its GI50 is 14.6 µM.

Q: And the TGI (HOP-62 NSCLC)?
A: Its TGI is 35 µM.

Q: And the GI50 (EKVX NSCLC)?
A: Its GI50 is 22.6 µM.

Q: And the TGI (EKVX NSCLC)?
A: The TGI was 44.2 µM.

Q: And the GI50 (NCI-H226 lung)?
A: Its GI50 is 22.6 µM.

Q: And the TGI (NCI-H226 lung)?
A: Its TGI is 46.7 µM.

Q: What about the GI50 (MDA-MB-231 breast) of the same compound?
A: Its GI50 is 30.4 µM.

Q: What about the TGI (MDA-MB-231 breast) of the same compound?
A: The TGI was over 100 µM.

Q: What about the GI50 (A498 renal) of the same compound?
A: The GI50 was 25.7 µM.

Q: What about the TGI (A498 renal) of the same compound?
A: Its TGI is 62.9 µM.

Q: What about the GI50 (HT29 colon) of the same compound?
A: Its GI50 is 27.2 µM.

Q: And the TGI (HT29 colon)?
A: Its TGI is 73.1 µM.

Q: And the GI50 (T-47D breast)?
A: The GI50 was 16.9 µM.

Q: What about the TGI (T-47D breast) of the same compound?
A: The TGI was 31.1 µM.

Q: What about the GI50 (SF-268 CNS) of the same compound?
A: Its GI50 is 23.9 µM.

Q: And the TGI (SF-268 CNS)?
A: The TGI was 57.7 µM.

Q: What about the GI50 (HL-60(TB) leukemia) of the same compound?
A: The GI50 was 14 µM.

Q: What about the TGI (HL-60(TB) leukemia) of the same compound?
A: Its TGI is 27.2 µM.

Q: And the GI50 (OVCAR-5 ovarian)?
A: The GI50 was 38.2 µM.

Q: And the TGI (OVCAR-5 ovarian)?
A: The TGI was over 100 µM.

Q: What about the GI50 (A549 NSCLC) of the same compound?
A: Its GI50 is 24.8 µM.

Q: What about the TGI (A549 NSCLC) of the same compound?
A: Its TGI is 58.2 µM.

Q: What about the GI50 (NCI-H23 lung) of the same compound?
A: The GI50 was 15.6 µM.

Q: What about the TGI (NCI-H23 lung) of the same compound?
A: The TGI was 29.5 µM.

Q: What about the GI50 (SK-MEL-2 melanoma) of the same compound?
A: Its GI50 is 20.3 µM.

Q: What about the TGI (SK-MEL-2 melanoma) of the same compound?
A: The TGI was 35.6 µM.

Q: What about the GI50 (HS 578T breast) of the same compound?
A: The GI50 was 18.6 µM.

Q: What about the TGI (HS 578T breast) of the same compound?
A: The TGI was 42.6 µM.

Q: What about the GI50 (NCI-H460 NSCLC) of the same compound?
A: The GI50 was 15.9 µM.

Q: And the TGI (NCI-H460 NSCLC)?
A: Its TGI is 31.9 µM.

Q: And the GI50 (SK-MEL-5 melanoma)?
A: Its GI50 is 18.8 µM.

Q: What about the TGI (SK-MEL-5 melanoma) of the same compound?
A: Its TGI is 32.9 µM.

Q: And the GI50 (OVCAR-8 ovarian)?
A: Its GI50 is 22.4 µM.

Q: And the TGI (OVCAR-8 ovarian)?
A: The TGI was 53.7 µM.

Q: What about the GI50 (HOP-92 NSCLC) of the same compound?
A: The GI50 was 23.9 µM.

Q: What about the TGI (HOP-92 NSCLC) of the same compound?
A: The TGI was 60.6 µM.

Q: And the GI50 (SK-OV-3 ovarian)?
A: The GI50 was 25.8 µM.

Q: And the TGI (SK-OV-3 ovarian)?
A: The TGI was 66.4 µM.

Q: And the GI50 (K-562 leukemia)?
A: The GI50 was 18.8 µM.

Q: And the TGI (K-562 leukemia)?
A: The TGI was 49.1 µM.

Q: And the GI50 (SW-620 colon)?
A: The GI50 was 25.6 µM.

Q: And the TGI (SW-620 colon)?
A: Its TGI is 68.8 µM.

Q: And the GI50 (SR leukemia)?
A: Its GI50 is 6.93 µM.

Q: And the TGI (SR leukemia)?
A: The TGI was 19.4 µM.

Q: And the GI50 (CAKI-1 renal)?
A: Its GI50 is 29.5 µM.

Q: And the TGI (CAKI-1 renal)?
A: The TGI was 74.9 µM.

Q: And the GI50 (ACHN renal)?
A: The GI50 was 31.3 µM.

Q: And the TGI (ACHN renal)?
A: The TGI was 98.7 µM.

Q: What about the GI50 (PC-3 prostate) of the same compound?
A: Its GI50 is 17.3 µM.

Q: What about the TGI (PC-3 prostate) of the same compound?
A: Its TGI is 35.4 µM.

Q: And the GI50 (MDA-MB-468 breast)?
A: Its GI50 is 16.7 µM.

Q: What about the TGI (MDA-MB-468 breast) of the same compound?
A: Its TGI is 36.2 µM.

Q: What about the GI50 (TK-10 renal) of the same compound?
A: The GI50 was 27.4 µM.

Q: What about the TGI (TK-10 renal) of the same compound?
A: Its TGI is 80.5 µM.

Q: What about the GI50 (SNB-19 CNS) of the same compound?
A: The GI50 was 42 µM.

Q: What about the TGI (SNB-19 CNS) of the same compound?
A: The TGI was over 100 µM.

Q: What about the GI50 (OVCAR-4 ovarian) of the same compound?
A: Its GI50 is 29.4 µM.

Q: And the TGI (OVCAR-4 ovarian)?
A: Its TGI is 75.2 µM.

Q: What about the GI50 ([…]-0 renal) of the same compound?
A: The GI50 was 30.2 µM.

Q: What about the TGI (786-0 renal) of the same compound?
A: Its TGI is over 100 µM.

Q: And the GI50 (SF-539 CNS)?
A: Its GI50 is 17.5 µM.

Q: And the TGI (SF-539 CNS)?
A: The TGI was 33.9 µM.

Q: And the GI50 (SK-MEL-28 melanoma)?
A: Its GI50 is 23 µM.

Q: What about the TGI (SK-MEL-28 melanoma) of the same compound?
A: The TGI was 50.7 µM.

Q: And the GI50 (KM12 colon)?
A: Its GI50 is 17.2 µM.

Q: And the TGI (KM12 colon)?
A: Its TGI is 31.8 µM.

Q: What about the GI50 (COLO 205 colon) of the same compound?
A: Its GI50 is 33.7 µM.

Q: What about the TGI (COLO 205 colon) of the same compound?
A: Its TGI is 82.7 µM.

Q: What about the GI50 (UACC-257 melanoma) of the same compound?
A: Its GI50 is 24.5 µM.

Q: And the TGI (UACC-257 melanoma)?
A: Its TGI is 48.6 µM.

Q: And the GI50 (UACC-62 melanoma)?
A: Its GI50 is 17.7 µM.

Q: What about the TGI (UACC-62 melanoma) of the same compound?
A: The TGI was 31.9 µM.

Q: What about the GI50 (UO-31 renal) of the same compound?
A: The GI50 was 24.1 µM.

Q: And the TGI (UO-31 renal)?
A: The TGI was 56.9 µM.
